Results: article PMC9698730 (Molecules, 2022)
Entries after “also recorded” stand apart in the source; their conditions may differ.

How the values were obtained:
Format in all cases: binding, SARS-CoV-2
R88A = tested on: R88A
R149A = tested on: R149A
H145A = tested on: H145A
NTD mutants = tested on: NTD mutants

Molecule	Mutations SPR (% Inhibition/NTD wt) (R88A)	Mutations SPR (% Inhibition/NTD wt) (R149A)	Mutations SPR (% Inhibition/NTD wt) (H145A)	effect of NTD mutations on SPR signal, in words (NTD mutants)
COc1ccc2cc([C@H](C)C(=O)O)ccc2c1 [Naproxen, naproxen]	R88 (55%), R149 (44%)	R88 (55%), R149 (44%)		
Dihydrofolate [DHF]		H145 (96%), R149 (83%)	H145 (96%), R149 (83%)	Mutations H145A and R149A strongly reduced the signal; also recorded: strong effects of the mutations R92A, Y111A and R88A
RPKPQQF-OH [Substance P (1-7), Substance P (1-7) RPKPQQF-OH]				relatively small effects of the mutations with notable exceptions of W52A and Y111A
